Results: the supplement of paper PMC10307832

Assays:
Test in all cases: relative viability (nuclei count vs DMSO), 5 days (fraction); higher = more cells survive
RU-SKI 43 + Phenformin = compound: CC[C@@H](C)CNCC(=O)N1CCC2=C([C@@H]1COC3=CC=CC(=C3)C)C=CS2 [RU-SKI 43] + N=C(N)NC(=N)NCCc1ccccc1 [Phenformin] (partner 250 µM)
Procedure, shortened: (§1)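 Lung cancer cell lines in 1536-well plates were dosed by pin tool the day after seeding, either with one drug alone or with a fixed anchor-drug dose plus five library-drug doses (not always all listed) in √10 steps. After 5 days, cells were fixed and their nuclei stained in one step (final 0.05% Triton X-100, 1% formaldehyde, 1 ug/ml Hoechst), then counted on 4× images. Relative viability is the nuclei count in treated wells divided by that in vehicle wells. Values are medians of duplicate plates.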

MK-8033 + Tozasertib = compound: Cn1cc(-c2cnc3ccc4ccc(CS(=O)(=O)NCc5ccccn5)cc4c(=O)c3c2)cn1 [MK-8033] + Cc1cc(Nc2cc(N3CCN(C)CC3)nc(Sc3ccc(NC(=O)C4CC4)cc3)n2)n[nH]1 [Tozasertib] (partner 0.1 µM)
Procedure, shortened: as §1

Irinotecan + Crizotinib = compound: CCc1c2c(nc3ccc(OC(=O)N4CCC(N5CCCCC5)CC4)cc13)-c1cc3c(c(=O)n1C2)COC(=O)[C@]3(O)CC [Irinotecan] + C[C@@H](Oc1cc(-c2cnn(C3CCNCC3)c2)cnc1N)c1c(Cl)ccc(F)c1Cl [Crizotinib] (partner 1 µM)
Procedure, shortened: as §1

Irinotecan + Phenformin = compound: CCc1c2c(nc3ccc(OC(=O)N4CCC(N5CCCCC5)CC4)cc13)-c1cc3c(c(=O)n1C2)COC(=O)[C@]3(O)CC [Irinotecan] + N=C(N)NC(=N)NCCc1ccccc1 [Phenformin] (partner 250 µM)
Procedure, shortened: as §1

Cell Line | relative viability (RU-SKI 43 + Phenformin; first compound 0.1 µM) | relative viability (RU-SKI 43 + Phenformin; first compound 0.3162 µM) | relative viability (RU-SKI 43 + Phenformin; first compound 1 µM) | relative viability (RU-SKI 43 + Phenformin; first compound 3.162 µM) | relative viability (RU-SKI 43 + Phenformin; first compound 10 µM) | relative viability (MK-8033 + Tozasertib; first compound 0.02 µM) | relative viability (MK-8033 + Tozasertib; first compound 0.06325 µM) | relative viability (MK-8033 + Tozasertib; first compound 0.2 µM) | relative viability (MK-8033 + Tozasertib; first compound 0.6325 µM) | relative viability (MK-8033 + Tozasertib; first compound 2 µM) | relative viability (Irinotecan + Crizotinib; first compound 0.6325 µM) | relative viability (Irinotecan + Crizotinib; first compound 2 µM) | relative viability (Irinotecan + Crizotinib; first compound 6.325 µM) | relative viability (Irinotecan + Crizotinib; first compound 20 µM) | relative viability (Irinotecan + Phenformin; first compound 0.6325 µM) | relative viability (Irinotecan + Phenformin; first compound 2 µM) | relative viability (Irinotecan + Phenformin; first compound 6.325 µM) | relative viability (Irinotecan + Phenformin; first compound 20 µM)
EPLC-272H | 0.294 | 0.242 | 0.323 | 0.213 | 0.266 | 0.27 | 0.214 | 0.279 | 0.32 | 0.152 | 0.504 | 0.163 | 0.2 | 0.264 | 0.25 | 0.244 | 0.241 | 0.294
LCLC-97TM1 | 0.463 | 0.471 | 0.422 | 0.43 | 0.384 | 0.2 | 0.237 | 0.241 | 0.223 | 0.216 | 0.107 | 0.208 | 0.185 | 0.239 | 0.322 | 0.205 | 0.127 | 0.115
NCI-H2085 | 0.758 | 0.652 | 0.709 | 0.698 | 0.631 | 0.812 | 0.708 | 0.73 | 0.841 | 0.593 | 0.845 | 0.622 | 0.511 | 0.537 | 0.662 | 0.702 | 0.559 | 0.478
COR-L23 | 0.426 | 0.544 | 0.46 | 0.553 | 0.421 | 0.198 | 0.187 | 0.164 | 0.164 | 0.117 | 0.293 | 0.289 | 0.204 | 0.1 | 0.31 | 0.394 | 0.188 | 0.108
